From article PMC10746543, “Design principles for cyclin K molecular glue degraders” (Nature Chemical Biology, 2023)
“And” between values parts separate entries of the source, which are not always exact repeats. Equal entries are not always repeated.

Key:
CDK12–cyclin K and DDB1 = target: T1, CDK12–cyclin K and DDB1 (Homo sapiens, UniProt Q16531+Q9NYV4, K965R); experiment: TR-FRET ternary complex formation assay (compound titration); type: binding
T1 construct: His6–CDK12 (a.a. 713–1,052); full-length or beta-propeller B domain deletion (ΔBPB: a.a. 396–705 deleted) constructs of His6–DDB1ΔBPB, StrepII–Avi–DDB1, or His6–Spy–DDB1; made in house; host or cells: Trichoplusia ni High Five insect cells (baculovirus)
T1 sequence (Q9NYV4 713-1052 K965R): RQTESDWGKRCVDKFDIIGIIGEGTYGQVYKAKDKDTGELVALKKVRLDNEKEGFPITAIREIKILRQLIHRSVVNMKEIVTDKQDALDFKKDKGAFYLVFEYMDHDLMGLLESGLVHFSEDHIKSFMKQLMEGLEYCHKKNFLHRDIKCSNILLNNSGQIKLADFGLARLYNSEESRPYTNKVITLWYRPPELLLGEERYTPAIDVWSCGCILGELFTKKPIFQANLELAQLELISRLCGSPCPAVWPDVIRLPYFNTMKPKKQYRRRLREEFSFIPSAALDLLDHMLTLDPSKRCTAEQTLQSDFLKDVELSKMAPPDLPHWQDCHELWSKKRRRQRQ
T1 sequence (O75909 1-267 partner): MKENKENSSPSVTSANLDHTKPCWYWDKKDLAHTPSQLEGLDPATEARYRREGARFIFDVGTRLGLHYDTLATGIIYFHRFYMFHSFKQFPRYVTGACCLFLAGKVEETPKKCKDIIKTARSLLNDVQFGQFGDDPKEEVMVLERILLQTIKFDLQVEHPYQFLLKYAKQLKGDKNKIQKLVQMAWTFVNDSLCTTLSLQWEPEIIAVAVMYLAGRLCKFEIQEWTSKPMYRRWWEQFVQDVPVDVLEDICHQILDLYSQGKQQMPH
T1 sequence (Q16531 whole entry): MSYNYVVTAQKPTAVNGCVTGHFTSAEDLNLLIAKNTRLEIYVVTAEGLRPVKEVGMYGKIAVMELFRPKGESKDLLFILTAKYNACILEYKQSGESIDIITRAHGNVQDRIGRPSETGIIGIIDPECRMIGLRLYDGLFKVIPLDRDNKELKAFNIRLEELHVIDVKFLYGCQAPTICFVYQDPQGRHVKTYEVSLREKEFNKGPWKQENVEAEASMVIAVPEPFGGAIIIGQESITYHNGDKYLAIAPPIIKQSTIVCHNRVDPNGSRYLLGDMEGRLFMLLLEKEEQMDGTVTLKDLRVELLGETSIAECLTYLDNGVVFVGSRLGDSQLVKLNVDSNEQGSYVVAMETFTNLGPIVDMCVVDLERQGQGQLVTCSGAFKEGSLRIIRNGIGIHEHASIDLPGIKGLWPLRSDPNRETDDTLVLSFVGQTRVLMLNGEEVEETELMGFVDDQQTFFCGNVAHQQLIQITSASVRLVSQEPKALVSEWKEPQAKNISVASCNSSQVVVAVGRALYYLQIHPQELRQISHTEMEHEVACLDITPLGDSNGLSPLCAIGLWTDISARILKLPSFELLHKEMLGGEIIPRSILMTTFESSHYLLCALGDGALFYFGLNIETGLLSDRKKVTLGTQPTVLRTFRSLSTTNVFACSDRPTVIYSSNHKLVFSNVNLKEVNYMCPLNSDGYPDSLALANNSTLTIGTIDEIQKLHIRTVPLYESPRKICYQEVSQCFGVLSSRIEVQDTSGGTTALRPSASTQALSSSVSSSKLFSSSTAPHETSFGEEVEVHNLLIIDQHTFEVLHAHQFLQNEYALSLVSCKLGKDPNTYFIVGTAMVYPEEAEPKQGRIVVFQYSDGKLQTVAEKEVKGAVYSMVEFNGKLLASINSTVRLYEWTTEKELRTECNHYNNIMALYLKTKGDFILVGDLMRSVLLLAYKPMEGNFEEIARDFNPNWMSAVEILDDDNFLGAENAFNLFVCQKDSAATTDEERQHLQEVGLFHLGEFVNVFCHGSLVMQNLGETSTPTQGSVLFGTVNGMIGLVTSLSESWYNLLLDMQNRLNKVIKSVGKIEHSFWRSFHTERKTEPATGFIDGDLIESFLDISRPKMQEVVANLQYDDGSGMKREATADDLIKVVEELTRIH
Method in brief: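 Signal was the ratio of 520 nm to 490 nm fluorescence, measured after a 70 μs delay that reduced background.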

CDK13 = target: T2, CDK13 (Homo sapiens, UniProt Q14004+Q16531); experiment: Label-free quantitative mass spectrometry in MDA-MB-231 cells, CDK13; type: cell-based
T2 construct: endogenous in cells; host or cells: MDA-MB-231
Method in brief: (§1)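 MDA-MB-231 cells treated 5 h with 1 µM cyclin K degrader or DMSO. Lysates digested with LysC and trypsin, then analysed by label-free diaPASEF LC-MS on a TimsTOF Pro2 with directDIA search and MS1 precursor quantification. Protein abundances scaled and analysed with limma.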

cyclin K = experiment: Label-free quantitative mass spectrometry in MDA-MB-231 cells, cyclin K; type: cell-based, human
Method in brief: as §1

CDK12 = target: T3, CDK12 (Homo sapiens, UniProt Q16531+Q9NYV4); experiment: Label-free quantitative mass spectrometry in MDA-MB-231 cells, CDK12; type: cell-based
T3 construct: endogenous in cells; host or cells: MDA-MB-231
T3 sequence (Q9NYV4 whole entry): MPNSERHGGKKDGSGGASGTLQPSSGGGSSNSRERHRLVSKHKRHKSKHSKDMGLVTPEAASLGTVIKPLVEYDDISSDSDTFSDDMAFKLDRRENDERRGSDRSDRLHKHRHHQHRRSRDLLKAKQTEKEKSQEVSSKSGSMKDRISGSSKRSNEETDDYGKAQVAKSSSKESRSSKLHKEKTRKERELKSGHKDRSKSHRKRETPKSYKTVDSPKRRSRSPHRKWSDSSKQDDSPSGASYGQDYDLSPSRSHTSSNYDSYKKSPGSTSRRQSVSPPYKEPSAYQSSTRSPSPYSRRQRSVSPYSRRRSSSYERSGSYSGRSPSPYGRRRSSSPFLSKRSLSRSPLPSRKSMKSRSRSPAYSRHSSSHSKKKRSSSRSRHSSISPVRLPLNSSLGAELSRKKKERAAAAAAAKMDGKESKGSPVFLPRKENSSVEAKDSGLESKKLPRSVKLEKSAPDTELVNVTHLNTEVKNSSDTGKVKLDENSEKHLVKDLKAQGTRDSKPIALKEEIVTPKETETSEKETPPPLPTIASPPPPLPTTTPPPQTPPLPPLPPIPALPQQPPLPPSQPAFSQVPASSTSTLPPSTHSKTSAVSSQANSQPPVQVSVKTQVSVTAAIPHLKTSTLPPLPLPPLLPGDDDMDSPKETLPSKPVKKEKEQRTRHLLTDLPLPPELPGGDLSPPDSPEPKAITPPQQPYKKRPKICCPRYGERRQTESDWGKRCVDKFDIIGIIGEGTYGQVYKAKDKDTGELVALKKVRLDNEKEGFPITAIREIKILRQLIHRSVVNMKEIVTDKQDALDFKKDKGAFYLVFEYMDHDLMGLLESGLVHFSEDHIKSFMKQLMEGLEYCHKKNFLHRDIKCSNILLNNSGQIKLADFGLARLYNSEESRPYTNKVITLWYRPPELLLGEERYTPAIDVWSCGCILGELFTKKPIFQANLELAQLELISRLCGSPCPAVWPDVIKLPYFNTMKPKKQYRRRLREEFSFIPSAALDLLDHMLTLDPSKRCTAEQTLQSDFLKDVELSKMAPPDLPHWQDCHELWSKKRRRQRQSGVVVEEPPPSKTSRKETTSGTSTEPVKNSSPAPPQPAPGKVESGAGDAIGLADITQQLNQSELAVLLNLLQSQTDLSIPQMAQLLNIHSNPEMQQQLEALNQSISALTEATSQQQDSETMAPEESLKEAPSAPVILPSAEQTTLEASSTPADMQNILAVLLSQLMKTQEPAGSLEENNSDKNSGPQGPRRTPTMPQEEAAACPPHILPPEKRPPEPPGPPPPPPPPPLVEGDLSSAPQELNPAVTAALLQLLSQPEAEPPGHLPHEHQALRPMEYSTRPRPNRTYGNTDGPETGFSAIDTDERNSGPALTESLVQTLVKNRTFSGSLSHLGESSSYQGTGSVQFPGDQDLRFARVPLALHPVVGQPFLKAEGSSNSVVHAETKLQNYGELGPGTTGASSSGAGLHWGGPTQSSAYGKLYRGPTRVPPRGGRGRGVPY
T3 sequence (O75909 whole entry partner): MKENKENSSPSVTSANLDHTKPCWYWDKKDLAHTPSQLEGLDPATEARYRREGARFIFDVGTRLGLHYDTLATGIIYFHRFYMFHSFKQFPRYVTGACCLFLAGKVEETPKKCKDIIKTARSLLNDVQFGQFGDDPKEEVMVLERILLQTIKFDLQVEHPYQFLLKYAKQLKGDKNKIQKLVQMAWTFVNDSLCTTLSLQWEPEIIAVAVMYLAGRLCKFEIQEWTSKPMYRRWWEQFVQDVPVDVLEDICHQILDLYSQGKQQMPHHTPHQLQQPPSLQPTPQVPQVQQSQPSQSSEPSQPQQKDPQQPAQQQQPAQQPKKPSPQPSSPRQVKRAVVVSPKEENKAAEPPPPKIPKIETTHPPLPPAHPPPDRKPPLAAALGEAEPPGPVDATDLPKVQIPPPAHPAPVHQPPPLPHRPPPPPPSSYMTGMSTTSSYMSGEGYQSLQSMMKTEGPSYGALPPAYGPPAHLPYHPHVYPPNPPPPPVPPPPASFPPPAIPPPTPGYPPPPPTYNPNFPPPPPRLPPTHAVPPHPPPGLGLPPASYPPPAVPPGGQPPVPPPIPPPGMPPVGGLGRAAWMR
T3 sequence (Q16531 2-1140 limits assumed): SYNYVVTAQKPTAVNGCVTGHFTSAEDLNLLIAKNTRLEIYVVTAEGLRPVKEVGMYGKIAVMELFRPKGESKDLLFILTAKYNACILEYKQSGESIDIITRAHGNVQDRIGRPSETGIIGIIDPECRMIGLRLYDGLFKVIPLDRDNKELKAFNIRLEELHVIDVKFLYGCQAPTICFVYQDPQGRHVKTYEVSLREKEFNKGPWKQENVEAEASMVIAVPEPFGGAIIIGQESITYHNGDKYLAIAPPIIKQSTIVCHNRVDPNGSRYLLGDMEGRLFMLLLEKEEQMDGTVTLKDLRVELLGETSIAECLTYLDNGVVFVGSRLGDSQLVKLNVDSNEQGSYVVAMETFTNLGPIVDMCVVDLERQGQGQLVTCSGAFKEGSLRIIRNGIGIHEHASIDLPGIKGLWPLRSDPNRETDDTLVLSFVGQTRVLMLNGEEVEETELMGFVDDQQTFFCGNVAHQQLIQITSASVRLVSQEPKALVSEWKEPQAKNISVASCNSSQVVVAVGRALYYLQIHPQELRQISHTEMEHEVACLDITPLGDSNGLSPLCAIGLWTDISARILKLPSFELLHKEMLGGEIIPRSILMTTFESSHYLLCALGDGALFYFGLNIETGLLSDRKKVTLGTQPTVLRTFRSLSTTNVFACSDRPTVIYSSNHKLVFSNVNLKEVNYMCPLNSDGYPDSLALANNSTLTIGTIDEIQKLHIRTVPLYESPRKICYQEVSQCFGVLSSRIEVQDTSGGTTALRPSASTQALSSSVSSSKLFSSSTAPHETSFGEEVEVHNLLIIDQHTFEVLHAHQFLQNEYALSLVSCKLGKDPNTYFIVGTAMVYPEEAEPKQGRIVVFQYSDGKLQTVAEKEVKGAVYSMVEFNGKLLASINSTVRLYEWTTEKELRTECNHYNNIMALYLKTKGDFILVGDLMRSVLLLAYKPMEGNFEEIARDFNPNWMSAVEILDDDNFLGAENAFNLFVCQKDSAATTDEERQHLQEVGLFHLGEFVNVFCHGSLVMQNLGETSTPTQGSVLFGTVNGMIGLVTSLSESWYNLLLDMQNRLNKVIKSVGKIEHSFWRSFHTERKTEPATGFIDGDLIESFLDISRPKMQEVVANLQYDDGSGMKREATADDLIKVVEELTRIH
Method in brief: as §1

[1] = label-free quantitative MS, replicate values
[2] = normalised to DMSO = 1, replicate values

CDK13 peptide count (CDK13; [1]): 281.229 and 215.265
CDK13 peptide count (DMSO-normalised) (CDK13; [2]): 0.4184 and 0.3308
CDK12 peptide count (CDK12; [1]): 613.534 and 654.471
CDK12 peptide count (DMSO-normalised) (CDK12; [2]): 0.6817 and 0.676
Structure (SMILES): Cn1cc(-n2cnc3c(NCc4nc5cc(Cl)c(Cl)cc5[nH]4)nc(N4CCOCC4)nc32)cn1 [SR-4835]
TR-FRET signal (CDK12–cyclin K and DDB1; compound concentration 0.468 nM): 0.24 and 0.2487 and 0.176 and 0.1833 and 0.1905 and 0.1902
TR-FRET signal at compound concentration 0.468 nM (CDK12–cyclin K and DDB1; compound concentration 0.468 nM, raw replicate titration data): 0.24 and 0.2487 and 0.176 and 0.1833 and 0.1905 and 0.1902
TR-FRET signal (CDK12–cyclin K and DDB1; compound concentration 2.16 nM): 0.2823 and 0.3111 and 0.2192 and 0.2275 and 0.225 and 0.234
TR-FRET signal at compound concentration 2.16 nM (CDK12–cyclin K and DDB1; compound concentration 2.16 nM, raw replicate titration data): 0.2823 and 0.3111 and 0.2192 and 0.2275 and 0.225 and 0.234
TR-FRET signal (CDK12–cyclin K and DDB1; compound concentration 3.6 nM): 0.3779 and 0.4354 and 0.3063 and 0.3176 and 0.3203 and 0.3168
TR-FRET signal at compound concentration 3.6 nM (CDK12–cyclin K and DDB1; compound concentration 3.6 nM, raw replicate titration data): 0.3779 and 0.4354 and 0.3063 and 0.3176 and 0.3203 and 0.3168
TR-FRET signal (CDK12–cyclin K and DDB1; compound concentration 7.92001 nM): 0.6106 and 0.7496 and 0.4912 and 0.5419 and 0.5567 and 0.5439
TR-FRET signal at compound concentration 7.92001 nM (CDK12–cyclin K and DDB1; compound concentration 7.92001 nM, raw replicate titration data): 0.6106 and 0.7496 and 0.4912 and 0.5419 and 0.5567 and 0.5439
TR-FRET signal (CDK12–cyclin K and DDB1; compound concentration 15.84 nM): 1.0796 and 1.304 and 0.9239 and 1.0376 and 1.022 and 1.028
TR-FRET signal at compound concentration 15.84 nM (CDK12–cyclin K and DDB1; compound concentration 15.84 nM, raw replicate titration data): 1.0796 and 1.304 and 0.9239 and 1.0376 and 1.022 and 1.028
TR-FRET signal (CDK12–cyclin K and DDB1; compound concentration 30.96 nM): 1.682 and 1.792 and 1.613 and 1.69 and 1.622 and 1.648
TR-FRET signal at compound concentration 30.96 nM (CDK12–cyclin K and DDB1; compound concentration 30.96 nM, raw replicate titration data): 1.682 and 1.792 and 1.613 and 1.69 and 1.622 and 1.648
TR-FRET signal (CDK12–cyclin K and DDB1; compound concentration 62.6401 nM): 1.888 and 1.962 and 1.877 and 1.886 and 1.857 and 1.865
TR-FRET signal at compound concentration 62.6401 nM (CDK12–cyclin K and DDB1; compound concentration 62.6401 nM, raw replicate titration data): 1.888 and 1.962 and 1.877 and 1.886 and 1.857 and 1.865
TR-FRET signal (CDK12–cyclin K and DDB1; compound concentration 125.28 nM): 1.977 and 2.1 and 1.914 and 1.988 and 1.925 and 1.931
TR-FRET signal at compound concentration 125.28 nM (CDK12–cyclin K and DDB1; compound concentration 125.28 nM, raw replicate titration data): 1.977 and 2.1 and 1.914 and 1.988 and 1.925 and 1.931
TR-FRET signal (CDK12–cyclin K and DDB1; compound concentration 244.8 nM): 2.037 and 2.154 and 1.951 and 1.963 and 1.955 and 1.942
TR-FRET signal at compound concentration 244.8 nM (CDK12–cyclin K and DDB1; compound concentration 244.8 nM, raw replicate titration data): 2.037 and 2.154 and 1.951 and 1.963 and 1.955 and 1.942
TR-FRET signal (CDK12–cyclin K and DDB1; compound concentration 993.601 nM): 2.0169 and 2.142 and 1.9225 and 1.946 and 1.977 and 1.949
TR-FRET signal at compound concentration 993.601 nM (CDK12–cyclin K and DDB1; compound concentration 993.601 nM, raw replicate titration data): 2.0169 and 2.142 and 1.9225 and 1.946 and 1.977 and 1.949
TR-FRET signal (CDK12–cyclin K and DDB1; compound concentration 2001.6 nM): 2.032 and 2.062 and 1.95 and 1.938 and 1.928 and 1.943
TR-FRET signal at compound concentration 2001.6 nM (CDK12–cyclin K and DDB1; compound concentration 2001.6 nM, raw replicate titration data): 2.032 and 2.062 and 1.95 and 1.938 and 1.928 and 1.943
cyclin K depletion, result in words (cyclin K; MDA-MB-231 cells, 1 µM, 5 h): more effective at depleting cyclin K than CR8
cyclin K abundance (label-free MS) (cyclin K; individual replicates, sheet EDF7): 69.2958 and 61.7731
cyclin K abundance (label-free MS) (cyclin K; [1]): 69.2958 and 61.7731
CCNK peptide count (DMSO-normalised) (cyclin K; [2]): 0.03786 and 0.03436
average CCNK peptide count (cyclin K; sheet EDF7): 65.5345
